Results: ChEMBL document CHEMBL5143605, “Discovery of 4-phenylindolines containing a (5-cyanopyridin-3-yl)methoxy moiety as potent inhibitors of the PD-1/PD-L1 interaction” (Bioorg Med Chem Lett, 2022)

These molecules were tested against Programmed cell death protein 1/Programmed cell death 1 ligand 1 (Homo sapiens, UniProt Q15116+Q9NZQ7) (assay: Inhibition of Tag2-PD1/Tag1-PD-L1 (unknown origin) protein-protein interaction preincubated for 15 mins followed by addition of anti-Tag1-Eu3+ and anti-Tag2-XL665 and measured after 2 hrs by HTRF analysis).
Programmed cell death protein 1/Programmed cell death 1 ligand 1, sequence (Q15116 whole entry): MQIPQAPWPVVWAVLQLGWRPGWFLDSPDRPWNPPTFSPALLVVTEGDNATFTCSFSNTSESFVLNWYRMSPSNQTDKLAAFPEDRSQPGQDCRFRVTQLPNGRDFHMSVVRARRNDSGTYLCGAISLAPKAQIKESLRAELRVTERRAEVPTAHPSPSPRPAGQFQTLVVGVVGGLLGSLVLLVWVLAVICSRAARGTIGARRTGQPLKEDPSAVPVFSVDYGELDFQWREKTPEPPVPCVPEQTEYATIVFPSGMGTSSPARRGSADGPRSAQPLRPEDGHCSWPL
Programmed cell death protein 1/Programmed cell death 1 ligand 1, sequence (Q9NZQ7 whole entry): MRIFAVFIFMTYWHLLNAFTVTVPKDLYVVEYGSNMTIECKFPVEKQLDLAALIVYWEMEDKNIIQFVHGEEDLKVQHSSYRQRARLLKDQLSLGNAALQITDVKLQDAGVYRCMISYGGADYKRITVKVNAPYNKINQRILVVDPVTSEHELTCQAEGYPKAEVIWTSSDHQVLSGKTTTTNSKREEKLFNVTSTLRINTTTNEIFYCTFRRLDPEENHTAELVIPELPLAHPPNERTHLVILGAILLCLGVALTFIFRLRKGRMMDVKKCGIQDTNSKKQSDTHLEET
Assay type: protein-complex assay

Row | Structure (SMILES) | IC50
1 | CC(=O)NCCNCc1ccc(C(=O)N2CCc3c(-c4ccccc4)cccc32)cc1OCc1ccnc(C#N)c1 | 308 nM
2 | CC(=O)NCCNCc1ccc(S(=O)(=O)N2CCc3c(-c4ccccc4)cccc32)cc1 | > 5000 nM
3 | COc1cccc(-c2cccc3c2CCN3C(=O)c2ccc(CNCCO)cc2)n1 | > 5000 nM
4 | COc1cc(C(=O)N2CCc3c(-c4ccccc4)cccc32)ccc1CNCCO | 161 nM
5 | CC(C)(CO)NCc1ccc(S(=O)(=O)N2CCc3c(-c4ccccc4)cccc32)cc1 | > 5000 nM
6 | O=C(c1ccc(CNCCO)cc1)N1CCc2c(-c3ccc4ocnc4c3)cccc21 | 192 nM
7 | COCCNCc1ccc(C(=O)N2CCc3c(-c4ccccc4)cccc32)cc1OCc1cncc(C#N)c1 | 251 nM
8 | N#Cc1cncc(COc2cc(C(=O)N3CCc4c(-c5ccccc5)cccc43)ccc2CNC2CCOCC2)c1 | 378 nM
9 | N#Cc1cncc(COc2cc(C(=O)N3CCc4c(-c5ccccc5)cccc43)ccc2CN2CC[C@H](O)C2)c1 | 74.6 nM
10 | O=C(c1ccc(CNCCO)cc1)N1CCc2c(-c3cnc4[nH]ccc4c3)cccc21 | 876 nM
11 | N#Cc1cncc(COc2cc(C(=O)N3CCc4c(-c5ccccc5)cccc43)ccc2CN2CC[C@H](CO)C2)c1 | 128 nM
12 | N#Cc1cc(COc2cc(C(=O)N3CCc4c(-c5ccccc5)cccc43)ccc2CNCCO)ccn1 | 105 nM
13 | CN(CCO)Cc1ccc(C(=O)N2CCc3c(-c4ccccc4)cccc32)cc1OCc1cncc(C#N)c1 | 60.1 nM
14 | N#Cc1cncc(COc2cc(C(=O)N3CCc4c(-c5ccccc5)cccc43)ccc2CN2CC[C@H](C(=O)O)C2)c1 | 53.2 nM
15 | CC(C)(CO)NCc1ccc(C(=O)N2CCc3c(-c4ccccc4)cccc32)cc1OCc1ccnc(C#N)c1 | 229 nM
16 | N#Cc1cncc(COc2cc(C(=O)N3CCc4c(-c5ccccc5)cccc43)ccc2CN2CCC[C@H]2C(=O)O)c1 | 626 nM
17 | N#Cc1cncc(COc2cc(C(=O)N3CCc4c(-c5ccccc5)cccc43)ccc2CN2CC[C@@H](O)C2)c1 | 124 nM
18 | O=C(c1ccc(CNCCO)cc1)N1CCc2c(-c3cccc4[nH]ccc34)cccc21 | 635 nM
19 | N#Cc1cncc(COc2cc(C(=O)N3CCc4c(-c5ccccc5)cccc43)ccc2CN2CC[C@@H](CO)C2)c1 | 132 nM
20 | N#Cc1cncc(COc2cc(C(=O)N3CCc4c(-c5ccccc5)cccc43)ccc2CNCCO)c1 | 87.3 nM
21 | O=C(c1ccc(CNCCO)cc1)N1CCc2c(-c3ccncc3)cccc21 | > 5000 nM
22 | O=C(c1ccc(CNCCO)cc1)N1CCc2c(-c3ccc4nccnc4c3)cccc21 | > 5000 nM
23 | CC(C)(CO)NCc1ccc(C(=O)N2CCc3c(-c4ccccc4)cccc32)cc1OCc1cncc(C#N)c1 | 116 nM
24 | CC(=O)NCCNCc1ccc(C(=O)N2CCc3c(-c4ccccc4)cccc32)cc1OCc1cncc(C#N)c1 | 154 nM
